Series [1] is described as follows: Solubility constant in aqueous solution (Kps).
The test system of another series is Subtilis bacteria. Particulars: Cu^+ ions; cited from earlier work.
A further series concerns Staphylococcus aureus. Particulars: Cu^+ ions; cited from earlier work.

Take Copper(I) Oxide: in series [1], the “Group (classification according to Kps value)” value (from here on “Group”) was “B (Group B: salts with a Kps within a range that goes from a value greater than 9*10^−16 until a value equal to or less than 9*10^−11.)”.

For Copper (I)Hydroxide, the “Group” value in series [1] is on record as “B (Group B: salts with a Kps within a range that goes from a value greater than 9*10^−16 until a value equal to or less than 9*10^−11.)”.

As to Copper(I)Phthalocyanine, in series [1], the “Group” value is reported as “B (Group B: salts with a Kps within a range that goes from a value greater than 9*10^−16 until a value equal to or less than 9*10^−11.)”.

As for `[OH][Cu][OH]` [Copper (II)Hydroxide], the “Group” value in series [1] is given as “C (Group C: salts with a Kps within a range that goes from a value greater than or equal to 1*10^−20 until a value equal to or less than 9*10^−16.)”.

Consider `[Cu]` [copper], for which the “MIC value for copper” value in the series on Subtilis bacteria was 0.04 µM; with Staphylococcus aureus, 0.35 µM.
